Measurements taken from US5670506A, “Halogen, isothiocyanate or azide substituted xanthines” (Cell Therapeutics, Inc., priority 1993, dated 1997).
“Also recorded” adds a separate entry of the source.

Experiments:
Format in all cases: cell-based
[1] = test system: CMV promoter activity in transformed (adenovirus) cells; experiment: CMV promoter assay (gene transcription and translation, cytotoxic activity); conditions: read-out: IC50 (μM), CMV promoter assay
Text: This example illustrates data regarding proliferative activity of various inventive compounds for inducting CMV promoter activity. The CMV promoter assay measures gene transcription and translation activity wherein any active compounds will nave cytotoxic activity to inhibit cellular protein synthesis machinery in transformed (adenovirus) cells.

human stromal cells = experiment: inhibition of proliferation of human stromal cells stimulated with PDGF; conditions: FIG. 7; 50 ng/ml PDGF-BB, in words
Description: (§1) This assay is a model for restenosis and treatment of atherosclerosis and coronary artery disease. Stromal cells were starved in serum-free media for one day and then stimulated with 50 ng/ml PDGF-BB. The drags were added at the indicated concentrations one hour prior to PDGF stimulation. Tritiated thymidine was added for one day at the time of PDGF stimulation and the cells were harvested and counted by liquid scintillation counting 24 hrs later. Background counts (i.e., starved cells) were approximately 1% of control levels.
Another assay for measuring activity of the inventive compounds involves determining PDGF (platelet derived growth factor) proliferative response using human-derived stromal cells. Human stromal cells are plated (e.g., about 2000 cells per well) in defined media (e.g., 69% McCoy's, 12.5% fetal calf serum, 12.5% horse serum, 1% antibiotics, 1% glutamine, 1% vitamin supplement, 0.8% essential amino acids, 1% sodium pyruvate, 1% sodium bicarbonate, 0.4% non-essential amino acids and 0.36% hydrocortisone). Two to three days later, the stromal cells are starved in serum-free media. Twenty four hours later, the cells are treated with a stimulating agent, such as PDGF-AA, PDGF-BB or basic FGF (fibroblast growth factor) with or without IL-1α or TNF, and tritiated thymidine. Cell proliferation is determined by liquid scintillation counting.
as §1, with “drugs” for “drags”

[2] = test system: TNF release from monocytes in whole blood; experiment: ex vivo human TNF model, LPS-mediated TNF release in whole blood; conditions: FIG. 14
Description: (§2) This model adds LPS to whole blood (normal human volunteers) to trigger a dose-dependent synthesis and extracellular release of TNF according to Desch et al. (Lymphokine Res. 8:141, 1989). The ex vivo model examines whether LPS-mediated release of TNF from monocytes in whole blood can be block by an inventive compound.
An ex vivo human sepsis model is described in Desch et al., Lymphokine Res. 8:141, 1989 and in Ooi et al., J. Exp. Med. 174:649, 1991. Briefly, whole blood from humans is incubated with LPS (endotoxin). TNF released from cells (mostly from monocytes) is measured. The inventive compounds lower TNF levels as compared with untreated controls in this model.
as §2, with “This example illustrates a comparative experiment comparing CT1595, CT1529 and CT2519 in an ex vivo human TNF model described herein. This assay is a predictive model for treatment and prevention of septic shock and sepsis syndrome. This” for “This”

[3] = test system: transformed cells (Ras 3T3) and normal 3T3 cells; experiment: cytotoxicity in transformed and normal 3T3 cells; conditions: FIG. 9; five compounds
Description: A similar experiment is shown in FIG. 9 for five inventive compounds (see Table 1 […] for chemical names) showing differential cytotoxicity for the same normal and transformed cells.
Each inventive compound is investigated for cytotoxicity to determine appropriate doses for biological activity assays and to prevent cytotoxic reactions in in vitro assays when characterizing activity. Cells (e.g., NIH-3T3, Ras transformed 3T3 cells, malignant melanoma LD2 cells, etc.) are added to microtiter plates and drug is added about two days after plating. Cell viability is determined using a fluorescent viability stain (e.g., 2',7'-bis-(2-carboroxyethyl)-5-(and -6)-carboxyfluorescein acetoxymethyl ester, BCECF excitation 488 nm and emission 525 nm) 24, 48 or 72 hours after addition of the drug.
This example illustrates a comparison of cytotoxicity determinations for CT1595 in transformed cells (Ras 3T3) and in normal 3T3 cells at drug doses of 1, 10 and 100 μM in in vitro cell culture conditions (FIG. 8). […] A similar experiment is shown in FIG. 9 for five inventive compounds (see Table 1 above for chemical names) showing differential cytotoxicity for the same normal and transformed cells.

mast cells = experiment: mast cell degranulation, serotonin release assay; conditions: 100 μM
Text: A serotonin release assay is utilized to study the utility of the inventive compounds for treatment of asthma and allergy. This assay measures mast cell degranulation, which is an early phase reaction to allergen challenge. Mast cells grown in tissue culture are first loaded with ^3 H serotonin, which is incorporated into the granules in the cells. The mast cells are sensitized with antigen specific monoclonal IgE, and then triggered to degranulate with the specific antigen (dinitrophenol bound to BSA (DNP)). When the cells degranulate, ^3 H Serotonin is released into the medium, and can be measured directly. The ability of the inventive compounds to inhibit the degranulation response is determined by the decrease in ^3 H Serotonin released in the presence of drug and is represented as % INHIBITION. The IC50 of any given compound is determined by the ability of that compound to inhibit degranulation by 50%.
Specifically, the serotonin release assay seeds 2×10^5 cells in 0.5 ml medium in duplicate for spontaneous release, IgE+DNP, IgE+DNP+EtOH (vehicle control), and inventive compounds. One μCi [^3H ]-Serotonin/ml (i.e., 0.5 μCi/well) (NEN Research Products, cat. #NET-398 Hydroxytryptamine Binoxalate, 5-[1,2-^3 H(N)]-(Serotonin Binoxalate, [1,2-^3 H(N)]-)) and 1 μl/ml IgE is added. The cells are incubated for 18 hours at 37° C. in 5% CO2, washed twice with 0.5 ml Isotonic Buffer (25 mM disodium PIPES pH 7.1,100 mM NaCl, 5 mM KCl, 5 mM glucose, 0.4 mM MgCl2, 1 mM CaCl2, 0.1% BSA), and sterile filtered. 250 μl Isotonic Buffer is added per well and the plates are equilibrated in an incubator for about 10 min. Drug is added and cells are activated with 40 ng/ml DNP-BSA (1 mg/ml Diluted 1:200 in Isotonic Buffer) for 45 minutes using 2 μl/250 μl. Spontaneous release is determined in incubated cells with 250 μl Isotonic Buffer for 45 minutes and the reaction is stopped by removing supernatant and centrifuging at ~4000 rpm in microfuge for 15 seconds to remove any detached cells. Released radiolableled serotonin is counted. To determine amount of ^3 H-serotonin incorporated into the cells, (a) remove Isotonic Buffer and lyse cells by adding 250 μl 1% Triton-X100 in PBS, (b) add to 5 ml scintillation fluid, (c) wash 2× with Triton/PBS, and (d) add washes to scintillation tube. Percent serotonin release is calculated by dividing the amount of released serotonin by the sum of incorporated plus released serotonin and correcting for spontaneous released serotonin. Compound inhibition is calculated by dividing the percent serotonin release in the presence of a compound by the percent serotonin release in the absence of the compound.
This assay is described above and provides an in vitro model for an allergy and asthma therapeutic compound.

SMILES	IC50 [1] [µM]	inhibition of human stromal cell proliferation (human stromal cells)	block of LPS-mediated TNF release [2]	cytotoxic activity, normal and transformed 3T3 cells [3]	inhibition at 100 µM (mast cells) [%]
CC(=O)OC(CBr)CCCCCCCn1c(=O)c(C)cn(C)c1=O (stereo not shown) [CT1908, 3-(8-acetoxy-9-bromononyl)-1-methylthymine]	50				
Cn1cnc2c1c(=O)n(CCCCCCCl)c(=O)n2C [CT1525, 1-(6-chlorohexyl)-3,7-dimethylxanthine]	> 500				
CC(=O)OC(CBr)CCCCCCCCn1c(=O)c2c(ncn2C)n(C)c1=O (stereo not shown) [CT1583, 1-(9-acetoxy-10-bromodecyl)-3,7-dimethylxanthine]	> 500	strongly inhibit proliferation			
CC(=O)OC(CBr)CCCCCCn1c(=O)c2c(ncn2C)n(C)c1=O (stereo not shown) [CT1514, 1-(7-acetoxy-8-bromooctyl)-3,7-dimethylxanthine]	> 500	strongly inhibit proliferation			
CC(=O)OC(CBr)CCCCn1c(=O)c2ccccc2n(C)c1=O (stereo not shown) [CT1205, 3-(5-acetoxy-6-bromohexyl)-1-methylbenzoyleneurea]	200				
Cn1cnc2c1c(=O)n(CCCCCCOC(=O)CCl)c(=O)n2C [CT1527, 1-(6-(chloroacetoxy)hexyl)-3,7-dimethylxanthine]	200				
CC(CCCCn1c(=O)c2c(ncn2C)n(C)c1=O)OC(=O)CCl (stereo not shown) [CT1529, 1-(5-(chloroacetoxy)hexyl)-3,7-dimethylxanthine]	100		could block TNF release in a dose-dependent fashion; also recorded: most effective agent at lower doses	significant cytotoxic activity	
CC(F)CCCCn1c(=O)c2c(ncn2C)n(C)c1=O (stereo not shown) [CT1577, 1-(5-fluorohexyl)-3,7-dimethylxanthine]	> 500	strongly inhibit proliferation			46
Cn1cnc2c1c(=O)n(CCCCC(O)CN=[N+]=[N-])c(=O)n2C (stereo not shown) [CT1517, 1-(6-azido-5-hydroxyhexyl)-3,7-dimethylxanthine]	> 500	strongly inhibit proliferation			
Cn1cnc2c1c(=O)n(CCCCCCBr)c(=O)n2C [CT1589, 1-(6-bromohexyl)-3,7-dimethylxanthine]	125	strongly inhibit proliferation			53
